# Measured values reported in patent US9840512B2, “Antidiabetic bicyclic compounds” (Merck Sharp & Dohme Corp., priority 2013, dated 2017).
# Target: human GPR40 (Homo sapiens, UniProt O14842)
# Assay: Inositol Phosphate Turnover (IP1) Assay 2
# Format: cell-based
# Design: expressed in transfected cells
# Conditions: HEK cells stably expressing human GPR40, Table 2, read-out: Human IP1
# Experimental: Human and mouse GPR40 stable cell-lines were generated in CHO cells stably expressing NFAT BLA (Beta-lactamase). A human GPR40 stable cell-line was generated in HEK cells stably expressing the aequorin expressing reporter. The expression plasmids were transfected using lipofectamine (Life Technologies) following manufacturer's instructions. Stable cell-lines were generated following drug selection.
# The assay is performed in 384-well format. HEK cells stably expressing human GPR40 are plated at 15,000 cells per well in growth medium (DMEM/10% fetal calf serum). Cell plates are then incubated 16 hours at 37 degrees in a 5% CO2 incubator.
# Measurement of Inositol Phosphate Turnover (IP1) is performed using the CisBio IP-One kit (Part number 62IPAPEB). After the 16 hour incubation, the cells are washed with HEPES buffer and 10 ul of stimulation buffer (prepared as described in the kit) is added to each well. In a separate plate, compounds are diluted in DMSO (400-fold over the final concentration in the assay well) and 25 nl is acoustically transferred to the appropriate well in the assay cell plate. The plates are then incubated for 60 minutes at 37 degrees. 10 ul of detection buffer (also prepared as described in the IP-One kit) is added to each well and the plates are incubated for 60 minutes in the dark. The plates are then read in a Perkin Elmer EnVision or equivalent reader able to measure FRET.
# Sequence of human GPR40 (O14842 whole entry): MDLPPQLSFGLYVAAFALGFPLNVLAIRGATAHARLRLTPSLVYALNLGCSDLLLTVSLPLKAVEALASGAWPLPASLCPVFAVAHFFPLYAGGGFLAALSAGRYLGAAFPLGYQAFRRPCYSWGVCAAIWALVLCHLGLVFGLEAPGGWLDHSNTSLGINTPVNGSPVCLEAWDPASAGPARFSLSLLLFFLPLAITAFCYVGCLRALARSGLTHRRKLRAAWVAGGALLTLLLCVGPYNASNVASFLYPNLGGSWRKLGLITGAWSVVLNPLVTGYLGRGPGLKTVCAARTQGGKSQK
row,SMILES,EC50 [nM]
1,"COc1ccc(F)c(-c2cnc(C3CCc4ccc([C@H](C5CC5)[C@H](C)C(=O)O)cc4O3)cc2OC)c1 (single isomer, unassigned) [Example 108a]",263
2,"COc1ccc(F)c(-c2cnc(C3CCc4ccc([C@H](C5CC5)[C@H](C)C(=O)O)cc4O3)cc2OC)c1 (single isomer, unassigned) [Example 108b]",5.8
3,"COc1cc(-c2ccc(C3CCc4ccc([C@H](C5CC5)[C@H](C)C(=O)O)cc4O3)c(F)c2)c(F)cn1 (single isomer, unassigned) [Example 109a]",0.17
4,"COc1cc(-c2ccc(C3CCc4ccc([C@H](C5CC5)[C@H](C)C(=O)O)cc4O3)c(F)c2)c(F)cn1 (single isomer, unassigned) [Example 109b]",1.2
5,"COc1cc(-c2cnc(C3CCc4ccc([C@H](C5CC5)[C@H](C)C(=O)O)cc4O3)c(F)c2)c(F)cn1 (single isomer, unassigned) [Example 110a]",6.8
6,"COc1cc(-c2cnc(C3CCc4ccc([C@H](C5CC5)[C@H](C)C(=O)O)cc4O3)c(F)c2)c(F)cn1 (single isomer, unassigned) [Example 110b]",1.6
7,"COc1ccc(F)c(-c2ccc(C3CCc4ccc([C@H](C5CC5)[C@H](C)C(=O)O)cc4O3)nc2C(F)(F)F)c1 (single isomer, unassigned) [Example 111a]",6
8,"COc1ccc(F)c(-c2ccc(C3CCc4ccc([C@H](C5CC5)[C@H](C)C(=O)O)cc4O3)nc2C(F)(F)F)c1 (single isomer, unassigned) [Example 111b]",25
9,"COc1cc(-c2ccc(C3CCc4ccc([C@H](C5CC5)[C@H](C)C(=O)O)cc4O3)nc2)c(F)cn1 (single isomer, unassigned) [Example 112a]",0.17
10,"COc1cc(-c2ccc(C3CCc4ccc([C@H](C5CC5)[C@H](C)C(=O)O)cc4O3)nc2)c(F)cn1 (single isomer, unassigned) [Example 112b]",0.92
11,"COc1ccc(F)c(-c2cc(F)c(C3CCc4ccc([C@H](C5CC5)[C@H](C)C(=O)O)cc4O3)nc2C)c1 (single isomer, unassigned) [Example 113a]",3.9
12,"COc1ccc(F)c(-c2cc(F)c(C3CCc4ccc([C@H](C5CC5)[C@H](C)C(=O)O)cc4O3)nc2C)c1 (single isomer, unassigned) [Example 113b]",14
13,"COc1ccc(F)c(-c2cnc(C3CCc4ccc([C@H](C5CC5)[C@H](C)C(=O)O)cc4O3)c(C)c2)c1 (single isomer, unassigned) [Example 115a]",4.2
14,"COc1ccc(F)c(-c2cnc(C3CCc4ccc([C@H](C5CC5)[C@H](C)C(=O)O)cc4O3)c(C)c2)c1 (single isomer, unassigned) [Example 115b]",17.4
15,"COc1cc(-c2ccc(C3CCc4ccc([C@H](C5CC5)[C@H](C)C(=O)O)cc4O3)cc2)c(F)cn1 (single isomer, unassigned) [Example 117a]",0.89
16,"COc1cc(-c2ccc(C3CCc4ccc([C@H](C5CC5)[C@H](C)C(=O)O)cc4O3)cc2)c(F)cn1 (single isomer, unassigned) [Example 117b]",0.17
17,"COc1cc(-c2ccc(C3CCc4ccc([C@H](C5CC5)[C@H](C)C(=O)O)cc4O3)cc2)ccn1 (single isomer, unassigned) [Example 118a]",1.6
18,"COc1cc(-c2ccc(C3CCc4ccc([C@H](C5CC5)[C@H](C)C(=O)O)cc4O3)cc2)ccn1 (single isomer, unassigned) [Example 118b]",5.9
19,"COc1cc(-c2ccc(C3CCc4ccc([C@H](C5CC5)[C@H](C)C(=O)O)cc4O3)nc2C)ccn1 (single isomer, unassigned) [Example 119a]",4.1
20,"COc1cc(-c2ccc(C3CCc4ccc([C@H](C5CC5)[C@H](C)C(=O)O)cc4O3)nc2C)ccn1 (single isomer, unassigned) [Example 119b]",7.8
21,"COc1cc(-c2ccc(C3CCc4ccc([C@H](C5CC5)[C@H](C)C(=O)O)cc4O3)nc2)ccn1 (single isomer, unassigned) [Example 120a]",4.4
